Reference: patent publication US11092596B2, “Material and method to screen proteasome stimulators” (Purdue Research Foundation, priority 2017, dated 2021)
Counter-ions that a name gives are not always drawn. Blank lines part the entries; values can stand above or below the compound they belong to.

Columns and labels:
[1] = molecular target: T1, chymotrypsin-like activity of the 20S CP (Homo sapiens, UniProt P28074); test: Kinetic assay, CT-L FRET reporter hydrolysis by purified 20S CP; type: biochemical; settings: for increase in the rate of hydrolysis (CT-L FRET reporter): 9 nM 20S CP, vs basal
T1 construct: 5 μL purified 20S proteasome (90 nM in Tris-HCl) was added to the control and test wells
Procedure: (§1) Plate preparation for the kinetic assay was performed similarly for all assays. All 96-well plates contained the following in triplicate: reporter background, containing reporter only, and control wells, containing reporter and purified 20S CP. It was determined that each well will contain a total volume of 50 μL. To each well was added 40 μL of the coumarin or FRET reporters (in Tris-HCl, 50 mM, pH 7.7). To the reporter background wells was added 7.5 μL Tris-HCl and 2.5 μL of the solvent in which the compound of interest was dissolved or diluted. Similarly, to the control wells was added 2.5 μL Tris-HCl and 2.5 μL of the solvent in which the compound of interest was dissolved or diluted. To the test wells was added 2.5 μL Tris-HCl and 2.5 μL of the compound of interest at a predetermined concentration. Immediately prior to running the assay on the Synergy 4 Plate Reader, 5 μL purified 20S proteasome (90 nM in Tris-HCl) was added to the control and test wells.
(§2) The Synergy 4 Plate Reader was set to heat the plate at 37° C. and read fluorescence every 2 min over a 40 min period. The excitation and emission wavelengths were set according to the reporter. For the FRET reporter, the excitation and emission wavelengths were set to 335 nm and 493 nm, respectively, corresponding to the excitation and emission wavelengths of the Edans fluorophore. For the coumarin reporter, the excitation and emission wavelengths were set to 380 nm and 460 nm, respectively.
(§3) AM-404 was used as a positive control compound to test the dose-response screening capabilities of the CT-L FRET reporter. The following concentrations of AM-404 were tested in triplicate: 50, 25, and 12.5 μM. To each well was added 40 μL 20 μM CT-L FRET (in Tris-HCl, 50 mM, pH 7.7). To the reporter background wells was added 5 μL Tris-HCl and 5 μL 1:1 Tris-HCl:DMSO. Similarly, to the control wells was added 5 μL 1:1 Tris-HCl:DMSO. To the 50 μM AM-404 test wells was added 2.5 μL Tris-HCl and 2.5 μL 1000 μM AM-404 in DMSO. To the 25 μM AM-404 test wells was added 2.5 μL Tris-HCl and 2.5 μL 500 μM AM-404 in DMSO. To the 12.5 μM AM-404 test wells was added 2.5 μL Tris-HCl and 2.5 μL 250 μM AM-404 in DMSO. Immediately prior to running the assay on the Synergy 4 Plate Reader, 5 μL purified 20S proteasome (90 nM in Tris-HCl) was added to the control and test wells. The assay was performed using the Synergy 4 plate reader as described for the general screening kinetic assay procedure.
as §3, with “Fenofibrate was” for “AM-404 was”, “a negative” for “a positive”, “of fenofibrate” for “of AM-404”, “μM fenofibrate” for “μM AM-404”, “procedure. […]” for “procedure.”

26S proteasome = settings: at concentrations as low as 5 μM; cited from earlier work
20S CP = 20S CP (Homo sapiens, UniProt P28074); settings: in cellulo, Suc-LLVY-AMC reporter, previously reported; read-out: EC50 as 20S CP stimulator; cited from earlier work
Suc-LLVY-AMC = system: T2, Suc-LLVY-AMC
T2 sequence: LLVY

[2] = system: T3, chymotrypsin-like FRET reporter (CT-L FRET), Lys(Y1)-Met-Ser-Gly-Phe-Ala-Ala-Thr-Ala-Glu(Y2)-Gly
T3 sequence: KMSGFAATAEG

[3] = molecular target: T1, chymotrypsin-like activity of the 20S CP; test: Kinetic assay, Suc-LLVY-AMC reporter hydrolysis by purified 20S CP; type: biochemical
Procedure: as §1
as §2, with “For the coumarin reporter, the excitation and emission wavelengths were set to 380 nm and 460 nm, respectively.” left out
Sodium dodecyl sulfate (SDS) was used to test the effect stimulating the 20S proteasome has on the hydrolysis of the FRET reporters. The appropriate concentration of SDS to use in the kinetic assay was determined using the small chymotrypsin-like activity reporter, Suc-LLVY-AMC (SEQ ID NO: 4). […] In triplicate, the following final concentrations of SDS were analyzed for the effect each has on the activity of the 20S proteasome: 4000 μM, 2000 μM, 1000 μM, 500 μM, 250 μM, 125 μM, and 0 μM, the basal activity of the 20S proteasome. […] Immediately prior to reading the plate with the Synergy 4 plate reader, 5 μL purified 20S proteasome (90 nM in Tris-HCl) was added to the wells at a final concentration of 9 nM per well.
The Synergy 4 Plate Reader was set to heat the plate at 37° C. and read fluorescence every 2 min over a 1 hr period. […] The resulting data in relative fluorescence units (RFU) was analyzed using GraphPad Prism and was plotted against time in minutes. […] Based on the resulting curve and the hyperbolic curve obtained using 1000 μM SDS (FIG. 11b), it was determined that 500 μM SDS was the appropriate concentration to use to test the effect stimulating the 20S proteasome has on the hydrolysis of the FRET reporters.
Stimulation of the 20S proteasome with SDS was determined using both the coumarin and FRET reporters for the chymotrypsin-like and trypsin-like activities of the 20S CP. […]

[4] = molecular target: T4, trypsin-like activity of the 20S CP (Homo sapiens, UniProt Q99436); test: Kinetic assay, T-L FRET reporter hydrolysis by purified 20S CP; type: biochemical; settings: 500 μM SDS
Procedure: as §1
as §2, with “For the coumarin reporter, the excitation and emission wavelengths were set to 380 nm and 460 nm, respectively.” left out
(§4) Stimulation of the 20S proteasome with SDS was determined using both the coumarin and FRET reporters for the chymotrypsin-like and trypsin-like activities of the 20S CP. […] Immediately prior to running the assay on the Synergy 4 Plate Reader, 5 μL purified 20S proteasome (90 nM in Tris-HCl) was added to the control and test wells. The assay was performed using the Synergy 4 plate reader as described for the general screening kinetic assay procedure. […]
To each well was added 40 μL 20 μM T-L FRET reporter (in Tris-HCl, 50 mM, pH 7.7). […] Immediately prior to running the assay on the Synergy 4 Plate Reader, 5 μL purified 20S proteasome (90 nM in Tris-HCl) was added to the control and test wells.

[5] = molecular target: T4, trypsin-like activity of the 20S CP; test: Kinetic assay, Bz-VGR-AMC reporter hydrolysis by purified 20S CP; type: biochemical; settings: 500 μM SDS
Procedure: as §1, with “To the test wells was added 2.5 μL Tris-HCl and 2.5 μL of the compound of interest at a predetermined concentration.” left out
The Synergy 4 Plate Reader was set to heat the plate at 37° C. and read fluorescence every 2 min over a 40 min period. […]
as §4, with “wells.” for “wells. The assay was performed using the Synergy 4 plate reader as described for the general screening kinetic assay procedure.”

decrease in the rate of hydrolysis of the CT-L FRET reporter ([1]; 2 μM bortezomib): 40%
Compound: CC(C)C[C@H](NC(=O)[C@H](Cc1ccccc1)NC(=O)c1cnccn1)B(O)O [bortezomib]

Compound: CN(C)C(=O)C(CCN1CCC(O)(c2ccc(Cl)cc2)CC1)(c1ccccc1)c1ccccc1 [Loperamide HCl]
stimulation of the 26S proteasome (26S proteasome): stimulate the 26S proteasome

Compound: CCCCC/C=C\C/C=C\C/C=C\C/C=C\CCCC(=O)Nc1ccc(O)cc1 [AM-404]
EC50 (20S CP): ~32 µM
increase in the rate of hydrolysis (CT-L FRET reporter) ([1]; 12.5 μM compound (lowest concentration tested)): 4 fold
increase in the rate of hydrolysis (CT-L FRET reporter) ([1]; 25.0 μM compound): 5 fold
increase in the rate of hydrolysis (CT-L FRET reporter) ([1]; 50.0 μM compound): 7 fold
Mean Signal (Rate) ([1]; CT-L FRET reporter, 20S CP, basal 5.300): 40.46
dose dependence of 20S CP stimulation ([1]; CT-L FRET reporter, dose response curve): dose-dependent

Compound: 20S core particle (20S CP) of the proteasome
rate of hydrolysis (average basal level, no stimulator) (Suc-LLVY-AMC): 60 ΔRFU/min
Mean Signal (Rate), Basal (background) activity of the 20S CP [2]: 5.3
rate of hydrolysis (average basal level, no stimulator) [2]: 2.9 ΔRFU/min

Compound: CCCCCCCCCCCCOS(=O)(=O)[O-].[Na+] [SDS, sodium dodecyl sulfate]
increase in the rate, Suc-LLVY-AMC reporter ([3]; 500 μM SDS vs basal): 2.4 fold
average rate of hydrolysis, Suc-LLVY-AMC reporter ([3]; 500 μM SDS, basal 60 ΔRFU/min): 145 ΔRFU/min
increase in the rate of hydrolysis of T-L FRET reporter compared to basal activity [4]: 5 fold
increase in the rate, CT-L FRET reporter ([1]; 500 μM SDS vs basal): 8.3 fold
average rate of hydrolysis, CT-L FRET reporter ([1]; 500 μM SDS, basal 2.9 ΔRFU/min): 24 ΔRFU/min
increase in the rate of hydrolysis of Bz-VGR-AMC compared to basal activity [5]: 2 fold

Compound: O=C(O)c1cc(O)c2c(c1)[C@@H]([C@H]1c3cc(C(=O)O)cc(O)c3C(=O)c3c(O[C@@H]4O[C@H](CO)[C@@H](O)[C@H](O)[C@H]4O)cccc31)c1cccc(O[C@@H]3O[C@H](CO)[C@@H](O)[C@H](O)[C@H]3O)c1C2=O [Compound 4, Sennoside B]
validation of primary hits in triplicate ([1]; 25 μM, newly purchased compound, CT-L FRET reporter): did not perform as it had in the initial screen
